Test results: patent US20230372364A1, “METHOD OF TREATING GABA MEDIATED DISORDERS” (Eliem Therapeutics (UK) Ltd, priority 2020, published 2023)
Like-named read-outs stand apart in the source and are kept apart here.

Experiments:
[1] = test system: rodent model of depression; assay: Forced swim test - Depression; assay type: in vivo; conditions: all doses listed in the cell
[2] = human, cited from earlier work
human subjects = conditions: cited from earlier work
[3] = human, cited from earlier work; remark: listed apart in the source
[4] = 30 mg, day 7 MAD (MTD), morning dosing

In the case of C[C@@]1(O)CC[C@H]2[C@H](CC[C@@H]3[C@@H]2CC[C@]2(C)[C@@H](C(=O)Cn4cc(C#N)cn4)CC[C@@H]32)C1 [Sage-217, zuranolone], the “Doses in Forced swim test - Depression, * = significantly efficacious dose” value [1] is listed as 1 - 3* mg/kg, the Tmax ([2]; 55 mg SAD MTD) is listed as 1.24 h and the “SAD MTD” value ([2]; single ascending dose) is listed as “SAGE-217 55 mg SAD MTD”. For the same molecule, the “Any adverse event, (%)” value (human subjects; 20 mg, n-188) was “(50.0) %”, the “Diarrhea, (%)” value (human subjects; 20 mg, n-188) was “(5.9) %” and the “Dizziness, (%)” value (human subjects; 20 mg, n-188) was “(7.4) %”. The “Fatigue, (%)” value (human subjects; 20 mg, n-188) was “(1.6) %”, the “Headache, (%)” value (human subjects; 20 mg, n-188) was “(11.2) %” and the “Nausea, (%)” value (human subjects; 20 mg, n-188) was “(5.3) %”. For the same molecule, the “Sedation, (%)” value (human subjects; 20 mg, n-188) was “(5.9) %”, the “Somnolence, (%)” value (human subjects; 20 mg, n-188) was “(5.9) %” and the “Any adverse event, (%)” value (human subjects; 30 mg, n-192) was “(54.2) %”. The “Diarrhea, (%)” value (human subjects; 30 mg, n-192) was “(6.3) %”, the “Dizziness, (%)” value (human subjects; 30 mg, n-192) was “(5.7) %” and the “Fatigue, (%)” value (human subjects; 30 mg, n-192) was “(6.8) %”. For the same molecule, the “Headache, (%)” value (human subjects; 30 mg, n-192) was “(6.3) %”, the “Nausea, (%)” value (human subjects; 30 mg, n-192) was “(3.6) %” and the “Sedation, (%)” value (human subjects; 30 mg, n-192) was “(4.7) %”. The “Somnolence, (%)” value (human subjects; 30 mg, n-192) was “(6.8) %”, the “ratio of Cmax/trough on day 7” value ([3]; 30 mg daily in the evening in a fed state) was 5.88 and the AUC0-inf [3, 4] was 833.2 ng·h/mL. The Cmin [3, 4] was 12.46 ng/mL, the “Ratio (Cmax/Cmin)” value [3, 4] was 9.24 and the “MAD MTD” value ([3]; multiple ascending dose) was “SAGE-217 30 mg”.
